Several values for one entry are separate records, joined by “and”; a condition that tells them apart may be missing. Equal values may be shown once. Where a name gives a salt, the structure may show the parent alone. Read-outs that look alike come from different tables or passages of the source.
Legend:
[1] = target: T1, VMAT2 (Rattus norvegicus, UniProt Q01827); settings: 50 µM
Description: (§1) We preincubated cells expressing VMAT2 with 50 μM compounds and measured [^3H]-DTBZ binding (5 nM) to the sample (Fig. 3a). […] Hek293 cells were grown and transfected with pcDNA3.1 VMAT2-His as described above. Two days after transfection, cells were harvested, washed and transferred to 96 well MultiScreen FB filter plates (Millipore). […] Cells were washed 3 times with ice cold PBS and 50 µl Ultima Gold LLL (PerkinElmer) was added to each well. […] After a 20 min incubation at 37 °C, cells were washed and [^3H] scintillation counting was performed as described above.

[2] = target: T1, VMAT2; assay: [3H]-DTBZ competition assay in Hek293 cells expressing VMAT2; settings: 50 μM compound;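 also: HEK293 cells transfected with VMAT2, pretreated 30 min with compound, then given 5 nM [3H]-DTBZ for 20 min at 37 °C, bound label read by scintillation counting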
Description: as §1

[3] = target: T2, rat VMAT2-His (Rattus norvegicus, UniProt Q01827); assay: Differential scanning fluorimetry (DSF) with CPM dye: change of melting temperature of purified VMAT2; format: binding; settings: for ΔTm at 12 µM: compound 0,12 µM; for ΔTm at 37 µM: compound 0,37 µM; for ΔTm at 10 µM: compound 10 µM; for ΔTm at 30 µM: compound 30 µM; for ΔTm at 90 µM: compound 90 µM; for ΔTm at 270 µM: compound 270 µM
T2 construct: The ORF of rat VMAT2 was subcloned into a pFastBac vector; His; made in house; host or cells: Sf9 insect cells (baculovirus)
Description: To screen purified VMAT2 by DSF we expressed the rat VMAT2 protein, as VMAT2-His, in SF9 insect cells using the baculovirus expression system. The transporter was solubilized and purified in n-Dodecyl-β-D-maltoside (DDM)/cholesterol hemisuccinate (CHS) micelles by immobilized metal affinity chromatography (IMAC) and size exclusion chromatography (SEC). […] Screening was performed using DSF and the thiol-reactive dye 7-diethylamino-3-(4-maleimidophenyl)-4-methylcoumarin (CPM), an approach that monitors changes to the protein melting temperature (Tm) upon compound binding. Using CPM or other dyes, DSF-based assays have successfully been used in molecular-based screenings[34],[35]. […] DSF screening was performed in 384 well plates using the thiol-sensing dye 7-diethylamino-3-(4-maleimidophenyl)-4-methylcoumarin (CPM) (Merck). […] Protein melting curves were determined using a LightCycler 480 ii RT-PCR system (Roche), with a temperature ramp increasing from 25 to 95 °C at a rate of 2 °C/min. Data analysis was performed using an in-house software that automatically determines the protein midpoint melting temperature (Tm) based on the second derivative of the melting curves or using the HTSDSF explorer as described in ref. [58]. […] 6 μl of this mix was dispensed to each well of 384 well plates using a Multidrop™ Combi Reagent Dispenser (Thermo Scientific). […] All initial hits were then subjected to an initial validation in triplicates with a compound concentration of 200 μM and a ΔTm > 5× the standard deviation (SD) cut off. […] Processing of the data from the primary screening and the concentration-dependent validation was performed as reported.

[4] = target: rat VMAT2 (Rattus norvegicus, UniProt Q01827); assay: FFN206 uptake assay in transfected Hek293 cells; settings: for VMAT2-specific FFN206 uptake relative to DMSO (=1), replicate samples: Fig. 2a source data, 25 μM compound; for FFN206 uptake relative to no compound (=1), replicate samples: listed as Oldaterol
[5] = tested on: rat VMAT2 variants; settings: cited from earlier work
[6] = Table 1, DSF screening, mean ± SD of triplicates
[7] = Table S2 dose response, read-out: ΔTm
[8] = Table S2 dose response, compound 1,11 µM, read-out: ΔTm
[9] = Table S2 dose response, compound 3,33 µM, read-out: ΔTm

T2 sequence (Q01827 whole entry): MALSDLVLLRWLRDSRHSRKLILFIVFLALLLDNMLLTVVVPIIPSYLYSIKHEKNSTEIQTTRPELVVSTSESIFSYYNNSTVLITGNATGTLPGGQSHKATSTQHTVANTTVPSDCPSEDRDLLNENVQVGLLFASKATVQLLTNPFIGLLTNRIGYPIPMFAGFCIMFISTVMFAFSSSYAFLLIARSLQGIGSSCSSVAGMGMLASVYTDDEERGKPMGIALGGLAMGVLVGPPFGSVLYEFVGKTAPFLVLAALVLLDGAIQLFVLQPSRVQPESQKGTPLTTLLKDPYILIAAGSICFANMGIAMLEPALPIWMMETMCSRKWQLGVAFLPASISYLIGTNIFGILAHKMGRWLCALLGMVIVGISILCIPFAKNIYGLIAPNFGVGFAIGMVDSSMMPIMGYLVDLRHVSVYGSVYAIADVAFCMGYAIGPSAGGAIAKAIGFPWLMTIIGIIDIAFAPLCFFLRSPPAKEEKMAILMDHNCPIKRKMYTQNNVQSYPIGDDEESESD
T1 sequence (Q01827 whole entry): as above
rat VMAT2, sequence (Q01827 whole entry): as above

effect on [3H]-DTBZ binding compared with DMSO control (one-way ANOVA, p < 0.001) [2] | ΔTm [3, 6] [oC] | ΔTm at 12 µM [3, 7] [°C] | ΔTm at 37 µM [3, 7] [°C] | ΔTm at 10 µM [3, 7] [°C] | ΔTm at 30 µM [3, 7] [°C] | ΔTm at 90 µM [3, 7] [°C] | ΔTm at 270 µM [3, 7] [°C] | VMAT2-specific FFN206 uptake relative to DMSO (=1), replicate samples [4] | Compound | activity ([1]; hek293 cells) [%] | also measured
no statistically significant effect | 4.98 ± 0.17 | 0.62 | 0.66 | 0.87 | 1.05 | 1.39 | 2.74 | 0.09585 and -0.01946 and 0.03446 | CC(C)n1c(/C=C/C(O)CC(O)CC(=O)O)c(-c2ccc(F)cc2)c2ccccc21 (centres unmarked) [Fluvastatin, Fluvastatin sodium salt] | 80.2 ± 34.8 | ΔTm at 11 µM [3, 8]: 0.71 °C; ΔTm at 33 µM [3, 9]: 0.66 °C
no statistically significant effect | 1.32 ± 0.22 | 0.2 | 0.33 | 1.11 | 1.6 | 0.9 | 2.12 | 0.4909 and 0.5029 and 0.6058 and 0.5946 | OC(CCN1CCCCC1)(c1ccccc1)C1CC2C=CC1C2 (centres unmarked) [Biperiden, Biperiden hydrochloride] |  | activity [1]: 79.9 ± 19.1%; ΔTm [3, 8]: 0.45 °C; ΔTm [3, 9]: 0.56 °C; inhibition at 25 µM ([4]; HEK293, read-out: inhibitory effect on VMAT2 activity): ≤ 50%
 |  |  |  |  |  |  |  |  | [3H]‐tetrabenazine |  | [3H]-tetrabenazine binding [5]: no TBZ binding; [3H]-tetrabenazine binding: reduction [5]: > 90%; [3H]-tetrabenazine binding: reduction in binding [5]: 50%; [3H]-tetrabenazine binding ([5]; variant E313D, ref [3, 4]): no binding

Compound | effect on [3H]-DTBZ binding compared with DMSO control (one-way ANOVA, p < 0.001) [2] | ΔTm [3, 6] [oC] | ΔTm at 12 µM [3, 7] [°C] | ΔTm at 37 µM [3, 7] [°C] | ΔTm at 10 µM [3, 7] [°C] | ΔTm at 30 µM [3, 7] [°C] | ΔTm at 90 µM [3, 7] [°C] | ΔTm at 270 µM [3, 7] [°C] | VMAT2-specific FFN206 uptake relative to DMSO (=1), replicate samples [4] | activity ([1]; hek293 cells) [%] | also measured
COc1ccc(CC(C)(C)NC[C@H](O)c2cc(O)cc3c2OCC(=O)N3)cc1 [Olodaterol] | no statistically significant effect | 1.09 ± 0.08 |  |  |  |  |  |  |  | 95.6 ± 18.6 | IC50 [4]: 4.75 ± 1.36 µM; FFN206 uptake relative to no compound (=1), replicate samples ([4]; Fig. 2b/2c source data, compound 0.0152 μM): 1.037 and 1.016 and 1.038 and 1.078; FFN206 uptake relative to no compound (=1), replicate samples ([4]; Fig. 2b/2c source data, compound 0.1372 μM): 1.061 and 1.023 and 1.068 and 1.18; FFN206 uptake relative to no compound (=1), replicate samples ([4]; Fig. 2b/2c source data, compound 0.4115 μM): 0.9896 and 1.059 and 0.9994 and 0.9917; FFN206 uptake relative to no compound (=1), replicate samples ([4]; Fig. 2b/2c source data, compound 1.2346 μM): 0.8954 and 0.9111 and 0.8127 and 1.136; FFN206 uptake relative to no compound (=1), replicate samples ([4]; Fig. 2b/2c source data, compound 3.7037 μM): 0.4411 and 0.5591 and 0.475 and 0.4566; FFN206 uptake relative to no compound (=1), replicate samples ([4]; Fig. 2b/2c source data, compound 11.1111 μM): 0.3412 and 0.3104 and 0.1707 and 0.3679; FFN206 uptake relative to no compound (=1), replicate samples ([4]; Fig. 2b/2c source data, compound 100.0000 μM): 0.0752 and 0.06166 and -0.04341 and -0.00625; FFN206 uptake relative to no compound (=1), replicate samples ([4]; Fig. 2c source data, compound 0.0017 μM): 1.069 and 1.105 and 1.094 and 1.258

Source: PMC9684503 (Communications Biology, 2022)
